Read-outs that look alike come from different tables or passages of the source. Bridge positions count the residues as written; N and C are the ends. Square brackets hold non-standard residues; d marks the D form. Peptide text beside a SMILES is read from it. * marks the point of attachment. EDDnp = O=[N+]([O-])c1ccc(NCCN*)c([N+](=O)[O-])c1; AMC = Cc1cc(=O)oc2cc(N*)ccc12; 2Abz = Nc1ccccc1C(=O)O; Cbz = O=C(OCc1ccccc1)*
Legend:
[1] = molecular target: T1, elastase-1 (Sus scrofa, UniProt P00772); assay: Kinetic characterization of elastase-1 inhibition (Michaelis-Menten, Dixon plot); type: biochemical; settings: for Elastase inhibition: data not shown
T1 construct: purchased Sigma-Aldrich
T1 sequence (P00772 27-266): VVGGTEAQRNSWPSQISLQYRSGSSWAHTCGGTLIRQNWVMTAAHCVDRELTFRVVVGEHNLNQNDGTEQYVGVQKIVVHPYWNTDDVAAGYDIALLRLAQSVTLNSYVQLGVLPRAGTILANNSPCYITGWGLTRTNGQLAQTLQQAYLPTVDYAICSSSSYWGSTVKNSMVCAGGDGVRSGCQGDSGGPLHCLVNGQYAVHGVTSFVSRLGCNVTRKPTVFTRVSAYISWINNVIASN
Protocol: To determine the inhibition constant (Ki ) of the peptide, firstly the Michaelis-Menten constant (Km ) for the Abz-FRSSRQ-EDDnp hydrolysis by elastase-1 was obtained. For this, the concentrations of 2.5 µM, 5.0 µM, 10.0 µM, 15.0 µM, 25.0 µM and 50.0 µM of the substrate were used, in Tris 50 mM, NaCl 50 mM pH 8.0. Initial rates were determined at an enzyme concentration (100 ng) that would hydrolyze less than 10% of the substrate. The kinetic parameters (Km and Vmax ) were calculated by Michaelis-Menten equation using the Grafit 5 software (Erithacus Software, West Sussex, UK), as previously described. All experiments were performed in duplicate.
The Kunitz-type peptide quantification was determined by the BCA method using insulin as standard (5 µg/µL, 10 µg/µL, 25 µg/µL, 50 µg/µL e 100 µg/µL). To determine the mechanism of action of the Kunitz-type inhibitor, two concentrations of Abz-FRSSRQ-EDDnp, 6.8 µM and 3.4 µM, and two concentrations of the purified peptide, 0.63 µM and 0.94 µM, were utilized. For each substrate concentration it was made a control test (absence of the peptide). The assays were performed in duplicate and during all experiment the consumption of substrate was maintained under 10%. The reactions were monitored in the fluorimeter, as described above, and were analyzed in the Grafit 5 software (Erithacus Software, West Sussex, UK). The mechanism and the inhibition constants were determined through the Dixon plot (1/V x [I]) equation [20]. The plot was made in the software GraphPad Prism 5.

[2] = molecular target: T1, elastase-1; assay: Stability test of peptides against hydrolysis by elastase-1 (RP-HPLC); type: in vitro ADME; settings: data not shown; for Stability against hydrolysis by elastase-1: peptide 50 mM (so in the source), elastase-1 300 ng, Tris 50 mM, NaCl 50 mM pH 8.0, 37 °C, 4 hours and overnight, C18 RP-HPLC, UV 214 nm, duplicate
Protocol: Samples containing only the synthetic peptides were used as negative control. After incubation, samples were analyzed, in duplicate by reverse phase chromatography on HPLC, using a Shim-pack C-18 column in the same conditions described above.

[3] = molecular target: T2, recombinant human cathepsin L (Homo sapiens, UniProt P07711); assay: Stability test of peptides against hydrolysis by cathepsin L (RP-HPLC); type: in vitro ADME; settings: cathepsin L 10 ng, NaCl 200 mM, EDTA 5 mM, DTT 6.25 mM pH 5.5; 37 °C; 4 hours and overnight (16 hours); C18 RP-HPLC, UV 214 nm; duplicate; data not shown
T2 construct: purchased R&D systems
Protocol: The synthetic peptides PEP1 and PEP2 (50 mM) were incubated with elastase-1 (300 ng), in Tris 50 mM, NaCl 50 mM pH 8.0 buffer, and cathepsin L (10 ng), in 50 mM, NaCl 200 mM, EDTA 5 mM, DTT 6.25 mM pH 5.5 buffer, at 37 °C in two different time intervals, 4 hours and overnight. Samples containing only the synthetic peptides were used as negative control. After incubation, samples were analyzed, in duplicate by reverse phase chromatography on HPLC, using a Shim-pack C-18 column in the same conditions described above.
Target sequence in this assay (P07711 114-333): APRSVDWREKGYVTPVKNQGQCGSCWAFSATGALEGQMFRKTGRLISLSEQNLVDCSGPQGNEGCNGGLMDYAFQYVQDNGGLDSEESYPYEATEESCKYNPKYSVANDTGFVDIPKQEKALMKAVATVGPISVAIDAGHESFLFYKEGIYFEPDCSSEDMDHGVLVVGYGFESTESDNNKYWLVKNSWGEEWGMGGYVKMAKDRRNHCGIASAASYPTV

[4] = molecular target: T2, recombinant human cathepsin L; assay: Kinetic characterization of cathepsin L inhibition (Michaelis-Menten, Dixon plot); type: biochemical
Protocol: To obtain the Michaelis-Menten constant (Km ) of the Z-FR-MCA hydrolysis by cathepsin L (1 ng), 1 µM, 2.5 µM, 5.0 µM, 7.5 µM, 12.5 µM, 15 µM, 20 µM concentrations of Z-FR-MCA substrate were tested in 50 mM, NaCl 200 mM, EDTA 5 mM, DTT 6.25 mM pH 5.5 buffer (final volume of 100 µL).The reactions were continuously monitored (fluorescence at λEM 480 nm and λEX 360 nm) in a fluorimeter (425-301 Hidex, Finland), as described. The maximum speed (Vmax ) and the Km were obtained in the Grafit 5 software. All experiments were performed in duplicate. To determine the mechanism of inhibition and the inhibition constant (Ki ) of inhibitor PEP2, two concentrations of the Z-FR-MCA, 5.2 µM (2 Km ) and 7.8 (3 Km ), and three concentrations of the inhibitor PEP2, 1 µM, 2.5 µM and 5 µM, were used. Samples without PEP2 for each substrate concentration were utilized. The experiments were carried out in duplicates and the consumption of the substrate was maintained under 10%. The results were analyzed in the Grafit 5 software. The mechanism and the inhibition constants were determined through the Dixon plot (1/V x [I]) equation [20], using the software GraphPad Prism 5.

[5] = test system: chymotrypsin; assay: Chymotrypsin inhibition; type: biochemical; settings: data not shown
[6] = test system: trypsin; assay: Trypsin inhibition; type: biochemical; settings: data not shown
[7] = test system: potassium channel; settings: read-out: Potassium channel blocker activity IC50; cited from earlier work
[8] = molecular target: T3, pancreatic elastase (EC 3.4.21.36) (UniProt P00772 27-266); assay: enzyme inhibition kinetics (fluorimetric, Dixon plot); elastase-1 (100 ng) with the FRET substrate Abz-FRSSRQ-EDDnp at 3.4 and 6.8 µM, purified peptide at 0.63 and 0.94 µM; Tris 50 mM, NaCl 50 mM, pH 8.0, 37 °C; duplicates; mechanism found uncompetitive; settings: both partners purified
T3 construct: also called elastase-1; source: bought: Sigma-Aldrich
T3 sequence (P00772 27-266): as the sequence (P00772 27-266) above

Question: For `N=C(N)NCCC[C@H](NC(=O)[C@H](Cc1ccccc1)NC(=O)c1ccccc1N)C(=O)N[C@@H](CO)C(=O)N[C@@H](CO)C(=O)N[C@@H](CCCNC(=N)N)C(=O)N[C@@H](CCC(N)=O)C(=O)NCCNc1ccc([N+](=O)[O-])cc1[N+](=O)[O-]` [Abz-FRSSRQ-EDDnp, reference compound] (H-[2Abz]FRSSRQ-EDDnp), which Km ([1]; Michaelis-Menten fit, Std. Error 2.2721 in its own column, read-out: Km, fit parameter value (Additional file 4A), elastase-1) is on record?
Answer: Its Km is 10.6 µM.

Question: And the Km ([1]; substrate 2.5-50.0 µM, elastase-1 100 ng, Tris 50 mM, NaCl 50 mM pH 8.0, Grafit 5, duplicate, read-out: Michaelis-Menten constant (Km) of substrate cleavage by elastase-1)?
Answer: Its Km is 10.7 µM.

Question: Which “Stability against hydrolysis by elastase-1” value [2] does the source give for `C[C@@H](O)[C@H](NC(=O)[C@H](Cc1ccccc1)NC(=O)CNC(=O)[C@H](CCC(=O)O)NC(=O)[C@H](CS)NC(=O)[C@H](CCC(N)=O)NC(=O)[C@H](CCCCN)NC(=O)[C@@H](N)CCCCN)C(=O)N[C@@H](Cc1c[nH]c2ccccc12)C(=O)N[C@@H](CO)C(=O)NCC(=O)N[C@@H](CS)C(=O)NCC(=O)NCC(=O)N[C@@H](CC(N)=O)C(=O)N[C@@H](CO)C(=O)O` [PEP1] (H-KKQCEGFTWSGCGGNS-OH) here?
Answer: Its value is “not stable”.

Question: And the “Stability against hydrolysis by cathepsin L” value [3]?
Answer: The value was “hydrolyzed”.

Question: What does the source list for `CC[C@H](C)[C@@H]1NC(=O)[C@H](CCCCN)NC(=O)[C@H](CCC(N)=O)NC(=O)[C@H](Cc2ccc(O)cc2)NC(=O)[C@@H](NC(=O)[C@H](CCCNC(=N)N)NC(=O)CNC(=O)[C@@H]2CCCN2)CSSC[C@@H](C(=O)NCC(=O)NCC(=O)O)NC(=O)CNC(=O)[C@H](CO)NC(=O)[C@H](Cc2c[nH]c3ccccc23)NC(=O)[C@H]([C@@H](C)O)NC(=O)[C@H](Cc2ccccc2)NC(=O)CNC(=O)[C@H](CCC(=O)O)NC(=O)[C@H](C(C)C)NC(=O)[C@H](CCC(N)=O)NC(=O)[C@H](CCCCN)NC(=O)[C@H](CCCCN)NC(=O)[C@H](CCCCN)NC(=O)[C@H](CCC(N)=O)NC(=O)[C@H](CC(N)=O)NC(=O)[C@H](Cc2ccc(O)cc2)NC(=O)[C@H](Cc2ccc(O)cc2)NC(=O)[C@H](Cc2ccccc2)NC(=O)[C@H](C)NC(=O)[C@@H]2CCCN2C1=O` [PEP2] (H-PGRCYQKIPAFYYNQKKKQVEGFTWSGCGG-OH; disulfide 4-28)?
Answer: Stability against hydrolysis by elastase-1 [2]: not stable; Ki ([4]; Dixon plot, Z-FR-MCA 5.2 and 7.8 µM (2 and 3 Km), PEP2 0, 1.0, 2.5 and 5.0 µM, cathepsin L 1 ng, pH 5.5 buffer with DTT 6.25 mM, duplicate, read-out: Inhibition constant (Ki) for cathepsin L): 1.96 µM; Stability against hydrolysis by cathepsin L [3]: not degraded

Question: With Cbz-Phe-Arg-{AMC} as the molecule, how does the Km ([4]; Michaelis-Menten fit, Std. Error 0.4867 in its own column, read-out: Km, fit parameter value (Additional file 4B), cathepsin L) read?
Answer: Its Km is 2.65 µM.

Question: And the Km ([4]; substrate 1-20 µM, cathepsin L 1 ng, pH 5.5 buffer, Grafit 5, duplicate, read-out: Michaelis-Menten constant (Km) of substrate hydrolysis by cathepsin L)?
Answer: The Km was 2.65 µM.

Question: Which “Stability on incubation with elastase-1 (substrate or not)” value ([2]; overnight incubation with elastase-1) does the source give for “Kunitz-type serine protease inhibitor homolog dendrotoxin I (QPLRKLCILHRNPGRCYQKIPAFYYNQKKKQCEGFTWSGCGGNSNRFKTIEECRRTCIRK) [Kunitz-type peptide]” here?
Answer: The value was “not an elastase-1 substrate”.

Question: And the Inhibition of chymotrypsin [5]?
Answer: The Inhibition of chymotrypsin was “no other serine protease inhibitions”.

Question: And the Inhibition of trypsin [6]?
Answer: The Inhibition of trypsin was “no other serine protease inhibitions”.

Question: And the “Mechanism of inhibition of elastase-1” value ([1]; Dixon plot (1/V versus [I]), parallel lines)?
Answer: The value was “uncompetitive inhibitor”.

Question: What about the Elastase inhibition ([1]; peptide 1.26 µM) of the same molecule?
Answer: The Elastase inhibition was “above 70%”.

Question: And the Elastase inhibition ([1]; peptide 3.52 µM)?
Answer: Its Elastase inhibition is “above 70%”.

Question: And the IC50 [7]?
Answer: Its IC50 is 0.00013 to 0.05 µM.

B1: Kunitz-type serine protease inhibitor homolog dendrotoxin I (peptide)
chain: QPLRKLCILHRNPGRCYQKIPAFYYNQKKKQCEGFTWSGCGGNSNRFKTIEECRRTCIRK
notes: also called Kunitz-type peptide; Kunitz peptide
Question: With B1 as the molecule, how does the Ki [8] read?
Answer: The Ki was 8 µM.

— article PMC7546081, “A Kunitz-type peptide from Dendroaspis polylepis venom as a simultaneous inhibitor of serine and cysteine proteases” (The Journal of Venomous Animals and Toxins Including …, 2020)
